What follows are molecules tested against human Nav1.7 (Homo sapiens (Human), UniProt Q15858) (assay: FRET-based membrane potential assay, recombinant human sodium channel Nav1.7). Settings: HEK293 cells stably expressing recombinant human Nav1.7; depolarization with veratridine (EC80) + scorpion venom.
Sequence of human Nav1.7 (Q15858 whole entry): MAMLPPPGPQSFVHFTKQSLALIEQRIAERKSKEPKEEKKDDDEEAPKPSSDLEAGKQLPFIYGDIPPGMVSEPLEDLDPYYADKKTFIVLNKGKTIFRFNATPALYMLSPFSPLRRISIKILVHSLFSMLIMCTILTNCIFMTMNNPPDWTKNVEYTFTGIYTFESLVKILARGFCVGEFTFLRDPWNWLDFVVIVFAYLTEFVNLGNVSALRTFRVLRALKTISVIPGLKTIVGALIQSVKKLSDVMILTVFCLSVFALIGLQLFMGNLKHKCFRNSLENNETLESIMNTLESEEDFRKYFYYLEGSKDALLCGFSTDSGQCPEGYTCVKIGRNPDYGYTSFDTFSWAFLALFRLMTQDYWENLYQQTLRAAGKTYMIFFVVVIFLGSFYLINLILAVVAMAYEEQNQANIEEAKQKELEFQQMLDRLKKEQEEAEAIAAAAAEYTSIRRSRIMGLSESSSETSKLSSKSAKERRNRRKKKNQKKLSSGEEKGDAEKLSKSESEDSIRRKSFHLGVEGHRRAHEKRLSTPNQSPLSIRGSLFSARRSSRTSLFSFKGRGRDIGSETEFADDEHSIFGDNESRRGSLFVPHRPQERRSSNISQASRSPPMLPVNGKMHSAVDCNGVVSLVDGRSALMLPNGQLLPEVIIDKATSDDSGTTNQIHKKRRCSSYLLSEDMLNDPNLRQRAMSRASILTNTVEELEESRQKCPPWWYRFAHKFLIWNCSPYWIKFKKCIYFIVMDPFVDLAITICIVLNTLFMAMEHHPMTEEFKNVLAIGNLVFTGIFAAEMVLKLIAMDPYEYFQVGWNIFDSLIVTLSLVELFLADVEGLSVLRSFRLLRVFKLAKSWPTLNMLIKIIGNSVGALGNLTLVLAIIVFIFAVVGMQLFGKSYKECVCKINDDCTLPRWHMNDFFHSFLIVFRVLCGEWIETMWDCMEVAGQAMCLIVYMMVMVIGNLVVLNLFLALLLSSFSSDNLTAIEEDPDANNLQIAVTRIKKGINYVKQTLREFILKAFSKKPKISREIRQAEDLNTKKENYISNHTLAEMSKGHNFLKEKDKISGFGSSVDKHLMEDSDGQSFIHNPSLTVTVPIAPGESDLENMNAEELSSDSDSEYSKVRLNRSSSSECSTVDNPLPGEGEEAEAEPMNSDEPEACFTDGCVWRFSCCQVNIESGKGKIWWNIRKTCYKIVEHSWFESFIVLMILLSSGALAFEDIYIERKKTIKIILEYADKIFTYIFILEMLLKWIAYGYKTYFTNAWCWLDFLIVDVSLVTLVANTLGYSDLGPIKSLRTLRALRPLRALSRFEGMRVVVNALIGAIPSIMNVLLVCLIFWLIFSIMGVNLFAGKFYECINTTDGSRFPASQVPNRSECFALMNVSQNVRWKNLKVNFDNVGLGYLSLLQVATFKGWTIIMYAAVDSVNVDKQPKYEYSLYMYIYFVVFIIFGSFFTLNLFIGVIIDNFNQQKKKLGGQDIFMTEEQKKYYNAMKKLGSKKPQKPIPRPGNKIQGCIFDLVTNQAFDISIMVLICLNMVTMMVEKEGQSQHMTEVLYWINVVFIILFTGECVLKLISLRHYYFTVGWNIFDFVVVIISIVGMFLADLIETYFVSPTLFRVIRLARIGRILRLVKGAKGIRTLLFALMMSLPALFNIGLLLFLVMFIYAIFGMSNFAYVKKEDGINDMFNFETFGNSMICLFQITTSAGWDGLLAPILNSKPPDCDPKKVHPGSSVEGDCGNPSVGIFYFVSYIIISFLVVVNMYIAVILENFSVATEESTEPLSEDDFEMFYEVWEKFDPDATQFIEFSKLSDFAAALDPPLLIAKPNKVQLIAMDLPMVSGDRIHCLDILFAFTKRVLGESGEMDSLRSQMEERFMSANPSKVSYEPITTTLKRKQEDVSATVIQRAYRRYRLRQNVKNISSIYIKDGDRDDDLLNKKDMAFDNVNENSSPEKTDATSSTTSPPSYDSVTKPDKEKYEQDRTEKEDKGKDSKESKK
Format: cell-based
Outline: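 IC50 derived by four-parameter Hill fit of percent inhibition of depolarization, measured as peak F440-480/F565-625 ratio over baseline. Stable human Nav1.7 HEK293 cells, dye-loaded with CC2-DMPE and DiSBAC2(3)/VABSC-1 at room temperature, received compound 3 min ahead of veratridine (EC80) plus scorpion venom.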
In the case of O=C(CN1CCN(c2cccc3c2cnn3-c2ccccc2F)C1=O)c1cccnc1 [Example 152, 1-[1-(2-fluorophenyl)-1H-indazol-4-yl]-3-[2-oxo-2-(pyridin-3-yl)ethyl]imidazolidin-2-one], the IC50 is reported as 2260 nM.
For O=C(CN1CCN(c2cccc3c2cnn3-c2ccccc2F)C1=O)c1ccc2c(c1)OCO2 [Example 153, 1-[2-(1,3-benzodioxol-5-yl)-2-oxoethyl]-3-[1-(2-fluorophenyl)-1H-indazol-4-yl]imidazolidin-2-one], the IC50 was 1320 nM.
O=C1N(c2cnccc2F)CCN1c1cccc2c1cnn2-c1ccccc1F [Example 154, 1-[1-(2-fluorophenyl)-1H-indazol-4-yl]-3-(4-fluoropyridin-3-yl)imidazolidin-2-one] showed an IC50 of 2870 nM.
CC(C)C[C@@H](O)CN1CCN(c2cccc3c2cnn3-c2ccccc2F)C1=O [Example 155, 1-[1-(2-fluorophenyl)-1H-indazol-4-yl]-3-[(2R)-2-hydroxy-4-methylpentyl]imidazolidin-2-one] was tested, and the IC50 was 1880 nM.
In the case of CC(C)C[C@H](O)CN1CCN(c2cccc3c2cnn3-c2ccccc2F)C1=O [Example 156, 1-[1-(2-fluorophenyl)-1H-indazol-4-yl]-3-[(2S)-2-hydroxy-4-methylpentyl]imidazolidin-2-one], the IC50 is reported as 1350 nM.
In the case of O=C(CC1CCOC1)CN1CCN(c2cccc3c2cnn3-c2ccccc2F)C1=O (stereo not shown) [Example 157, 1-[1-(2-fluorophenyl)-1H-indazol-4-yl]-3-[2-oxo-3-(tetrahydrofuran-3-yl)propyl]imidazolidin-2-one], the IC50 is reported as 3370 nM.
O=C1N(c2cncs2)CCN1c1cccc2c1cnn2-c1ccccc1F [Example 158, 1-[1-(2-fluorophenyl)-1H-indazol-4-yl]-3-(1,3-thiazol-5-yl)imidazolidin-2-one] gave an IC50 of 20000 nM.
In the case of CC[C@@H](CO)N1CCN(c2cccc3c2cnn3-c2ccccc2F)C1=O [Example 159, 1-[1-(2-fluorophenyl)-1H-indazol-4-yl]-3-[(2S)-1-hydroxybutan-2-yl]imidazolidin-2-one], the IC50 is reported as 3590 nM.
Molecule CC[C@@H](O)CN1CCN(c2cccc3c2cnn3-c2ccccc2F)C1=O [Example 160, 1-[1-(2-fluorophenyl)-1H-indazol-4-yl]-3-[(2R)-2-hydroxybutyl]imidazolidin-2-one] has an IC50 of 3510 nM.
In the case of CC(C)(C)C(=O)CN1CCN(c2cccc3c2cnn3-c2ccccc2F)C1=O [Example 161, 1-(3,3-dimethyl-2-oxobutyl)-3-[1-(2-fluorophenyl)-1H-indazol-4-yl]imidazolidin-2-one], the IC50 is reported as 1400 nM.
For CC(C)C(=O)CN1CCN(c2cccc3c2cnn3-c2ccccc2F)C1=O [Example 162, 1-[1-(2-fluorophenyl)-1H-indazol-4-yl]-3-(3-methyl-2-oxobutyl)imidazolidin-2-one], the IC50 was 729 nM.
CC(C)C(O)CN1CCN(c2cccc3c2cnn3-c2ccccc2F)C1=O (stereo not shown) [Example 163, 1-[1-(2-fluorophenyl)-1H-indazol-4-yl]-3-(2-hydroxy-3-methylbutyl)imidazolidin-2-one] showed an IC50 of 2160 nM.
With O=C(CN1CCN(c2cccc3c2cnn3-c2ccccc2F)C1=O)C1CCC1 [Example 164, 1-(2-cyclobutyl-2-oxoethyl)-3-[1-(2-fluorophenyl)-1H-indazol-4-yl]imidazolidin-2-one] the IC50 was 635 nM.
O=C1N(CC(O)C2CCC2)CCN1c1cccc2c1cnn2-c1ccccc1F (stereo not shown) [Example 165, 1-(2-cyclobutyl-2-hydroxyethyl)-3-[1-(2-fluorophenyl)-1H-indazol-4-yl]imidazolidin-2-one] was tested, and the IC50 was 681 nM.
Work on O=C(C1CCC1)C(O)N1CCN(c2cccc3c2cnn3-c2ccccc2F)C1=O (stereo not shown) [Example 166, 1-(2-cyclobutyl-1-hydroxy-2-oxoethyl)-3-[1-(2-fluorophenyl)-1H-indazol-4-yl]imidazolidin-2-one] yielded an IC50 of 435 nM.
CC(C)C[C@@](C)(O)CN1CCN(c2cccc3c2cnn3-c2ccccc2F)C1=O [Example 167, 1-[1-(2-fluorophenyl)-1H-indazol-4-yl]-3-[(2R)-2-hydroxy-2,4-dimethylpentyl]imidazolidin-2-one] showed an IC50 of 893 nM.
